The series in a line: activity coefficient (dimensionless); of the first substance listed, at infinite dilution; xn = mol fraction of the nth substance listed. As to conditions: Liquid, Chromatography, x1 = 0.

Numbers after ± are expanded uncertainties.

Consider `ClC(Cl)Cl` [trichloromethane] + CCCCCCCCn1cc[n+](COCCCOC[n+]2ccn(CCCCCCCC)c2C)c1C.N#C[N-]C#N.N#C[N-]C#N, for which the activity coefficient reads like this: (323.15 K) 0.24 ± 0.03; (333.15 K) 0.26 ± 0.03; (343.15 K) 0.27 ± 0.03.
The matching figures for `Cc1ccccc1C` [1,2-dimethylbenzene] + CCCCCCCCn1cc[n+](COCCC)c1C.O=S(=O)([N-]S(=O)(=O)C(F)(F)F)C(F)(F)F: 0.94 ± 0.06, 0.94 ± 0.06 and 0.94 ± 0.06.
For the compound `Cc1ccc(C)cc1` [1,4-dimethylbenzene] + Cn1cc[n+](COCCCOC[n+]2ccn(C)c2)c1.N#C[N-]C#N.N#C[N-]C#N, the activity coefficient runs as follows: (323.15 K) 10.5 ± 0.72; (333.15 K) 10.2 ± 0.69; (343.15 K) 9.96 ± 0.68.
Taken in the same sequence, the figures for `CCC[N+](=O)[O-]` [1-nitropropane] + CCCCCCCCn1cc[n+](COCCCOC[n+]2ccn(CCCCCCCC)c2C)c1C.O=S(=O)([N-]S(=O)(=O)C(F)(F)F)C(F)(F)F.O=S(=O)([N-]S(=O)(=O)C(F)(F)F)C(F)(F)F were 0.34 ± 0.03, 0.33 ± 0.03 and 0.32 ± 0.03.
As to `c1ccccc1` [benzene] + CCCOC[n+]1ccn(Cc2ccccc2)c1.O=S(=O)([N-]S(=O)(=O)C(F)(F)F)C(F)(F)F, the activity coefficient came out at 0.81 ± 0.05 (323.15 K), 0.71 ± 0.05 (333.15 K) and 0.71 ± 0.05 (343.15 K).
Take `CCCCCCCCC` [nonane] + CCCCCCCCn1cc[n+](COCCC)c1C.N#C[N-]C#N: the activity coefficient runs as follows: (323.15 K) 14.9 ± 1; (333.15 K) 13.6 ± 0.93; (343.15 K) 13.1 ± 0.9.
Taken in the same sequence, the figures for `Cc1cccc(C)c1` [1,3-dimethylbenzene] + CCCCCCCCn1cc[n+](COCCC)c1C.O=S(=O)([N-]S(=O)(=O)C(F)(F)F)C(F)(F)F were 1.02 ± 0.06, 1 ± 0.06 and 1.01 ± 0.06.
The matching figures for `CCCC(C)=O` [pentan-2-one] + CCCCCCCCn1cc[n+](COCCCOC[n+]2ccn(CCCCCCCC)c2C)c1C.O=S(=O)([N-]S(=O)(=O)C(F)(F)F)C(F)(F)F.O=S(=O)([N-]S(=O)(=O)C(F)(F)F)C(F)(F)F: 0.29 ± 0.03, 0.29 ± 0.03 and 0.3 ± 0.03.
Take `CC(C)CO` [2-methyl-1-propanol] + CCCOC[n+]1ccn(Cc2ccccc2)c1.N#C[N-]C#N: the activity coefficient (323.15 K) was 0.9 ± 0.06 and the activity coefficient (333.15 K) was 0.86 ± 0.06.
With `C1COCCO1` [1,4-dioxane] + CCCCCCCCn1cc[n+](COCCCOC[n+]2ccn(CCCCCCCC)c2C)c1C.N#C[N-]C#N.N#C[N-]C#N, the activity coefficient reads like this: (323.15 K) 0.55 ± 0.04; (333.15 K) 0.55 ± 0.04; (343.15 K) 0.55 ± 0.04.
In the case of `C[N+](=O)[O-]` [nitromethane] + CCCCCCCCn1cc[n+](COCCCOC[n+]2ccn(CCCCCCCC)c2C)c1C.O=S(=O)([N-]S(=O)(=O)C(F)(F)F)C(F)(F)F.O=S(=O)([N-]S(=O)(=O)C(F)(F)F)C(F)(F)F, the activity coefficient (323.15 K) came to 0.31 ± 0.03, the activity coefficient (333.15 K) stood at 0.29 ± 0.03 and the activity coefficient (343.15 K) was found to be 0.47 ± 0.04.
The matching figures for `CC(C)O` [propan-2-ol] + CCCOC[n+]1ccn(Cc2ccccc2)c1.F[B-](F)(F)F: 2.19 ± 0.15, 1.96 ± 0.13 and 1.81 ± 0.12.
Taken in the same sequence, the figures for `ClCCl` [dichloromethane] + CCCCCCCCn1cc[n+](COCCC)c1C.O=S(=O)([N-]S(=O)(=O)C(F)(F)F)C(F)(F)F were 0.42 ± 0.04, 0.43 ± 0.04 and 0.48 ± 0.04.
Taken in the same sequence, the figures for `C#CCCCCC` [1-heptyne] + CCCOC[n+]1ccn(Cc2ccccc2)c1.O=S(=O)([N-]S(=O)(=O)C(F)(F)F)C(F)(F)F were 2.82 ± 0.19, 2.42 ± 0.16 and 2.25 ± 0.15.
As for `C1COCCO1` [1,4-dioxane] + Cn1cc[n+](COCCCOC[n+]2ccn(C)c2)c1.N#C[N-]C#N.N#C[N-]C#N, the activity coefficient runs as follows: (323.15 K) 1.09 ± 0.07; (333.15 K) 1.11 ± 0.07; (343.15 K) 1.13 ± 0.07.
The matching figures for `CCC[N+](=O)[O-]` [1-nitropropane] + CN(C)c1cc[n+](COCCCOC[n+]2ccc(N(C)C)cc2)cc1.O=S(=O)([N-]S(=O)(=O)C(F)(F)F)C(F)(F)F.O=S(=O)([N-]S(=O)(=O)C(F)(F)F)C(F)(F)F: 0.57 ± 0.04, 0.59 ± 0.04 and 0.56 ± 0.04.
The matching figures for `CCCCCCCCCCCCC` [tridecane] + CCCOC[n+]1ccn(C)c1.F[B-](F)(F)F: 1640 ± 110, 1630 ± 110 and 1630 ± 110.
For the compound `CO` [methanol] + CCCCCCCCn1cc[n+](COCCCOC[n+]2ccn(CCCCCCCC)c2C)c1C.N#C[N-]C#N.N#C[N-]C#N, the activity coefficient (323.15 K) is 0.2 ± 0.03, the activity coefficient (333.15 K) was 0.2 ± 0.03 and the activity coefficient (343.15 K) turned out to be 0.21 ± 0.03.
On to `ClC(Cl)(Cl)Cl` [tetrachloromethane] + CCCCCCCCn1cc[n+](COCCCOC[n+]2ccn(CCCCCCCC)c2C)c1C.O=S(=O)([N-]S(=O)(=O)C(F)(F)F)C(F)(F)F.O=S(=O)([N-]S(=O)(=O)C(F)(F)F)C(F)(F)F, for which the activity coefficient by setting is: (323.15 K) 0.99 ± 0.06; (333.15 K) 0.92 ± 0.06; (343.15 K) 1.02 ± 0.06.
On to `Cc1ccccc1C` [1,2-dimethylbenzene] + N#C[N-]C#N.N#C[N-]C#N.c1ccc(Cn2cc[n+](COCCCOC[n+]3ccn(Cc4ccccc4)c3)c2)cc1, for which the activity coefficient worked out at 7.13 ± 0.49 (323.15 K), 6.87 ± 0.47 (333.15 K) and 6.71 ± 0.46 (343.15 K).
Taken in the same sequence, the figures for `C1CCCCCC1` [cycloheptane] + CCCOC[n+]1ccc(N(C)C)cc1.O=S(=O)([N-]S(=O)(=O)C(F)(F)F)C(F)(F)F were 18.6 ± 1.3, 24.6 ± 1.7 and 31.7 ± 2.2.
The matching figures for `ClCCl` [dichloromethane] + CCCOC[n+]1ccn(C)c1.F[B-](F)(F)F: 1.07 ± 0.07, 1.16 ± 0.07 and 1.19 ± 0.08.
Taken in the same sequence, the figures for `CCCCCCCCCCCC` [dodecane] + CCCCCCCCn1cc[n+](COCCCOC[n+]2ccn(CCCCCCCC)c2C)c1C.O=S(=O)([N-]S(=O)(=O)C(F)(F)F)C(F)(F)F.O=S(=O)([N-]S(=O)(=O)C(F)(F)F)C(F)(F)F were 15.4 ± 1.1, 13.9 ± 0.95 and 13.1 ± 0.89.
On to `c1ccsc1` [thiophene] + CCCOC[n+]1ccn(Cc2ccccc2)c1.F[B-](F)(F)F, for which the activity coefficient was found to be 1.33 ± 0.09 (323.15 K), 1.27 ± 0.08 (333.15 K) and 1.25 ± 0.08 (343.15 K).
Taken in the same sequence, the figures for `CO` [methanol] + CCCOC[n+]1ccn(Cc2ccccc2)c1.N#C[N-]C#N were 0.39 ± 0.03, 0.4 ± 0.03 and 0.4 ± 0.03.
The matching figures for `C#CCCCC` [1-hexyne] + CCCOC[n+]1ccn(C)c1.F[B-](F)(F)F: 10.3 ± 0.7, 10.1 ± 0.69 and 9.44 ± 0.64.
The matching figures for `CCCCCCCCCCCCCC` [tetradecane] + CCCOC[n+]1ccn(C)c1.N#C[N-]C#N: 1510 ± 100, 1390 ± 96 and 1260 ± 87.
For the compound `CCC[N+](=O)[O-]` [1-nitropropane] + CCCOC[n+]1ccn(C)c1.O=S(=O)([N-]S(=O)(=O)C(F)(F)F)C(F)(F)F, the activity coefficient was 0.74 ± 0.05 (323.15 K), 0.72 ± 0.05 (333.15 K) and 0.72 ± 0.05 (343.15 K).
As to `CCC(C)CC` [3-methylpentane] + CCCCCCCCn1cc[n+](COCCC)c1C.O=S(=O)([N-]S(=O)(=O)C(F)(F)F)C(F)(F)F, the activity coefficient runs as follows: (323.15 K) 3.57 ± 0.24; (333.15 K) 3.42 ± 0.23; (343.15 K) 3.05 ± 0.21.
For the compound `C[N+](=O)[O-]` [nitromethane] + CCCCCCCCn1cc[n+](COCCC)c1C.N#C[N-]C#N, the activity coefficient was determined as 0.68 ± 0.05 (323.15 K), 0.66 ± 0.05 (333.15 K) and 0.63 ± 0.04 (343.15 K).
Taken in the same sequence, the figures for `C1CCCCC1` [cyclohexane] + CCCCCCCCn1cc[n+](COCCCOC[n+]2ccn(CCCCCCCC)c2C)c1C.N#C[N-]C#N.N#C[N-]C#N were 4.29 ± 0.29, 3.86 ± 0.26 and 3.71 ± 0.25.
The matching figures for `Cc1ccccc1` [toluene] + Cn1cc[n+](COCCCOC[n+]2ccn(C)c2)c1.O=S(=O)([N-]S(=O)(=O)C(F)(F)F)C(F)(F)F.O=S(=O)([N-]S(=O)(=O)C(F)(F)F)C(F)(F)F: 1.46 ± 0.1, 1.48 ± 0.1 and 1.46 ± 0.1.
The matching figures for `ClC(Cl)(Cl)Cl` [tetrachloromethane] + CCCOC[n+]1ccn(C)c1.O=S(=O)([N-]S(=O)(=O)C(F)(F)F)C(F)(F)F: 3 ± 0.2, 3.05 ± 0.21 and 2.85 ± 0.19.
For `CCO` [ethanol] + CCCOC[n+]1ccn(Cc2ccccc2)c1.F[B-](F)(F)F, the activity coefficient reads like this: (323.15 K) 1.65 ± 0.11; (333.15 K) 1.49 ± 0.1; (343.15 K) 1.38 ± 0.09.
Taken in the same sequence, the figures for `CCOCC` [diethyl ether] + CN(C)c1cc[n+](COCCCOC[n+]2ccc(N(C)C)cc2)cc1.O=S(=O)([N-]S(=O)(=O)C(F)(F)F)C(F)(F)F.O=S(=O)([N-]S(=O)(=O)C(F)(F)F)C(F)(F)F were 2.46 ± 0.17, 2.47 ± 0.17 and 2.43 ± 0.17.
For `Cc1cccc(C)c1` [1,3-dimethylbenzene] + CCCOC[n+]1ccn(C)c1.O=S(=O)([N-]S(=O)(=O)C(F)(F)F)C(F)(F)F, the activity coefficient (323.15 K) came out at 2.59 ± 0.18, the activity coefficient (333.15 K) amounted to 2.54 ± 0.17 and the activity coefficient (343.15 K) stood at 2.54 ± 0.17.

Values taken from the NIST ThermoML archive (doi:10.1016/j.fluid.2014.11.020).
